Experimental findings from patent publication US9872870B2, “Multifunctional micellar nanoparticle-based drug and targeting agent system” (University of Notre Dame du Lac, priority 2011, dated 2018) are described below.

SMILES strings stand for the structures.

The test system of data set [1] is NCI-H929 cells. Description: Cytotoxicity on fibronectin or BSA coated plates (CAM-DR). Here is the method:
Cytotoxicity assays: Cytotoxicity was determined using Cell Counting Kft-8 (Dojindo) as previously described. […] In all cases, cell viability was assessed by cell counting kit-8 (CCK-8), and data represent means (±SD) of triplicate cultures.
Cell viability was assessed by cell counting kit-8 (CCK-8), and data represent means (±SD) of triplicate cultures.

Data set [2] concerns NCI-H929 cells. Description: DNA double strand breaks and apoptosis (western blot, immunocytochemistry, Annexin V). The format is cell-based, human. The conditions noted are these: 250 nM Dox equivalents, 0-48 h. The method, then: It is well established that Dox induces DNA double strand breaks (DSBs) and apoptosis of cancer cells. An early specific cellular response to DSBs in mammalian cells is the phosphorylation of the histone protein H2AX (γ-H2AX), with respective foci formation. Therefore, we examined whether free Dox and NPDox/VLA-4-pep triggered similar signaling cascades of DNA damage and apoptosis in MM cells. […] Phosphorylation of DNA damage response protein H2AX at Ser139 was assayed by western blotting (FIG. 10a). Respective H2AX foci formation was assayed by immunocytochemistry (FIG. 10b). Apoptosis was assessed by flow cytometry following Annexin V-FITC staining (FIG. 10c), and by western blotting for PARP cleavage and caspase-8 and caspase-9 activation (FIG. 10d).
For immunocytochemistry analysis, cytospins of drug-treated cells were prepared on glass slides and fixed with 4% paraformaldehyde. Slides were blocked with 5% goat serum, incubated with y-H2AX antibody (Cell Signaling) overnight at 4° C., and then with AlexaFluor-488-labelled Fab2 (Molecular Probes). Coverslips were then mounted on the glass slides with VectaShield antifade/DAR (Vector Labs) and analyzed by Nikon Eclipse TS100 fluorescence microscope at 60×/0.5-1.25 oil, with a Nikon Infinity camera. For flow cytometric analysis, data represent means (±SD) of triplicate experiments. For western blotting, representative images are shown, and all antibodies were purchased from Cell Signaling.
A general note: A western blot detects proteins with antibodies after separation by electrophoresis.

Data set [3] is described as follows: Systemic toxicity in tumor bearing mice (body weight, lethality, blood count, organ weights, histopathology). The class given is in vivo, CB.17 SCID mice. The method, then: (§1) To validate the therapeutic efficacy of multifunctional nanoparticles, CB.17 SCID mice (Harlan Laboratories) were irradiated with 150 rad, and were inoculated subcutaneously with 5×10^6 NCI-H929 cells. […] When the tumors were palpable, each mouse was injected with the drug, intravenously, on days 1, 3, and 5. […] Animals were monitored for body weight and tumor volume by caliper measurements. Tumor growth inhibition was detected by caliper measurements (left). Data shown are means (±SE) of n=6-8 per treatment group. Statistical comparisons of continuous variables were carried out by Student's two-tailed t-test and were considered significant when P<0.05.
(§2) For determination of systemic toxicity, 3 additional mice from each group were sacrificed on day 5 before any lethality was observed. Organ weights were measured. For complete blood count analysis, 200 μl of blood was drawn from each mouse via cardiac puncture, immediately mixed with 50 μl of Sequester Solution (Cambridge Diagnostic Products), and was analyzed with the HemaVet950 (Drew Scientific). Immunohistochemical staining of excised tumors for caspase-3 was performed as previously described.
To evaluate systemic toxicity, analysis of complete blood cell count, which is highly susceptible to chemotherapeutic agents, was performed. Three mice from each group were dissected on day 5, and complete blood count (white blood cell, red blood cell, and thrombocyte) was performed (FIG. 12e). Data represents means (±SE). *P<0.05, when compared to free Dox group.

The next data set relates to NCI-H929 MM cells. In words: Cytotoxicity assay (Cell Counting Kit-8). Conditions: Dox equivalents. The format is cell-based, human. Here is the method: To determine cytotoxicity in the presence of fibronectin, MM cells were plated on fibronectin coated plates (40 μg/ml), in adhesion buffer, for 1 h. […] BSA coated plates were used as controls.
In general terms: Formazan colour is commonly taken as a measure of viable cells.

Data set [4] concerns NCI-H929 subcutaneous xenograft. In words: Subcutaneous xenograft model of MM, tumor growth. The conditions noted are these: 6 mg/kg Dox equivalents iv on days 1, 3 and 5. The class given is in vivo, CB.17 SCID mice. Here is the method:
as §1, §2
Three mice from each group were dissected on day 5 and tumors were stained for activated caspase-3. Representative images of tumor cross-sections that were captured using a Nikon Eclipse TS100 microscope at 20× magnification are shown.

As usually defined, the IC50 is the concentration that inhibits the measured activity by half. Turning to `COc1cccc2c1C(=O)c1c(O)c3c(c(O)c1C2=O)C[C@@](O)(C(=O)CO)C[C@@H]3O[C@H]1C[C@H](N)[C@H](O)[C@H](C)O1` [free Dox, doxorubicin], the “IC50, cytotoxicity in the presence of fibronectin” value in the data set on NCI-H929 cells [1] is recorded as 0.421-0.09 μM. Moreover, the “IC50 shift caused by adhesion to fibronectin (CAM-DR)” value in the data set on NCI-H929 cells [1] (fibronectin vs BSA coated plates, 72 h) is reported as 3 fold. For the same molecule, in the data set with NCI-H929 cells [2], the H2AX phosphorylation entry was “induced H2AX phosphorylation”; the “apoptosis (annexin V, PARP and caspase-8 activation)” value was “induced apoptosis”; the caspase-9 activation result is “No significant caspase-9 activation”. For the same molecule, in data set [3] (6 mg/kg Dox equivalents iv on days 1, 3 and 5), the lethality entry is “lethality of all mice on day 7”. Besides, the “body weight loss” value in data set [3] (6 mg/kg iv on days 1, 3 and 5) is “significant loss of body weight”. Further, in data set [3] (day 5), the “liver mass loss and histopathology” value was “moderate hepatocellular hypertrophy and degeneration”; the “spleen mass loss and histopathology” value is “severe fibrosis”. In the data set with NCI-H929 MM cells (NCI-H929, 48 h), the IC50 was found to be 190 ± 40 nM. In the data set on NCI-H929 MM cells (NCI-H929, 72 h), the half-maximal inhibitory concentration (IC50) is about 130 nM. The tumor growth inhibition entry in data set [4] is on record as “dramatic tumor growth inhibition”.
